From ChEMBL document CHEMBL1150788, “In vitro susceptibility of Sporothrix schenckii to six antifungal agents determined using three different methods” (2007)
≈ marks a conversion by molar mass, not a printed value.

Assays:
Type in all cases: functional
Sporothrix schenckii [1] = experiment: Antifungal activity against Sporothrix schenckii P10012 isolate from cutaneous-lymphatic sporotrichosis patient after 72 hrs by modified NCCLS M38-A method
Sporothrix schenckii [2] = experiment: Antifungal activity against Sporothrix schenckii P0019 isolate from cutaneous-lymphatic sporotrichosis patient after 72 hrs by ATB Fungus 2 method
Pichia kudriavzevii [3] = experiment: Antifungal activity against Candida krusei ATCC 6258 […] after 72 hrs by ATB Fungus 2 method; settings: ATCC 6258, 72 h
Sporothrix schenckii [4] = experiment: Antifungal activity against Sporothrix schenckii P14036 isolate from cutaneous-lymphatic sporotrichosis patient after 72 hrs by ATB Fungus 2 method
Sporothrix schenckii [5] = experiment: Antifungal activity against Sporothrix schenckii PSCC1 isolate from cutaneous-lymphatic sporotrichosis patient after 72 hrs by Sensititre YeastOne method
Sporothrix schenckii [6] = experiment: Antifungal activity against Sporothrix schenckii P26187 isolate from cutaneous-lymphatic sporotrichosis patient after 72 hrs by Sensititre YeastOne method
Sporothrix schenckii [7] = experiment: Antifungal activity against Sporothrix schenckii SSA29 isolate from cutaneous-lymphatic sporotrichosis patient after 72 hrs by modified NCCLS M38-A method
Sporothrix schenckii [8] = experiment: Antifungal activity against Sporothrix schenckii P30019 isolate from cutaneous-lymphatic sporotrichosis patient after 72 hrs by modified NCCLS M38-A method
Sporothrix schenckii [9] = experiment: Antifungal activity against Sporothrix schenckii P10012 isolate from cutaneous-lymphatic sporotrichosis patient after 72 hrs by ATB Fungus 2 method
Candida parapsilosis [10] = experiment: Antifungal activity against Candida parapsilosis ATCC 22019 […] after 72 hrs by ATB Fungus 2 method; settings: Lodderomyces parapsilosis, ATCC 22019, 72 h
Sporothrix schenckii [11] = experiment: Antifungal activity against Sporothrix schenckii PSSA81 isolate from cutaneous-lymphatic sporotrichosis patient after 72 hrs by ATB Fungus 2 method
Sporothrix schenckii [12] = experiment: Antifungal activity against Sporothrix schenckii PJRC002 isolate from cutaneous-lymphatic sporotrichosis patient after 72 hrs by modified NCCLS M38-A method
Sporothrix schenckii [13] = experiment: Antifungal activity against Sporothrix schenckii P20825 isolate from cutaneous-lymphatic sporotrichosis patient after 72 hrs by modified NCCLS M38-A method
Sporothrix schenckii [14] = experiment: Antifungal activity against Sporothrix schenckii P20825 isolate from cutaneous-lymphatic sporotrichosis patient after 72 hrs by ATB Fungus 2 method
Sporothrix schenckii [15] = experiment: Antifungal activity against Sporothrix schenckii P0019 isolate from cutaneous-lymphatic sporotrichosis patient after 72 hrs by Sensititre YeastOne method
Sporothrix schenckii [16] = experiment: Antifungal activity against Sporothrix schenckii P24255 isolate from cutaneous-lymphatic sporotrichosis patient after 72 hrs by modified NCCLS M38-A method
Pichia kudriavzevii [17] = experiment: Antifungal activity against Candida krusei ATCC 6258 […] after 72 hrs by modified NCCLS M38-A method; settings: ATCC 6258, 72 h
Sporothrix schenckii [18] = experiment: Antifungal activity against Sporothrix schenckii PGAC0016 isolate from cutaneous-lymphatic sporotrichosis patient after 72 hrs by Sensititre YeastOne method
Sporothrix schenckii [19] = experiment: Antifungal activity against Sporothrix schenckii SSA29 isolate from cutaneous-lymphatic sporotrichosis patient after 72 hrs by Sensititre YeastOne method
Sporothrix schenckii [20] = experiment: Antifungal activity against Sporothrix schenckii isolate from cutaneous-lymphatic sporotrichosis patient after 72 hrs by Sensititre YeastOne method
Aspergillus flavus [21] = experiment: Antifungal activity against Aspergillus flavus ATCC 204304 […] after 72 hrs by Sensititre YeastOne method; settings: ATCC 204304, 72 h
Aspergillus flavus [22] = experiment: Antifungal activity against Aspergillus flavus ATCC 204304 […] after 72 hrs by modified NCCLS M38-A method; settings: ATCC 204304, 72 h
Aspergillus flavus [23] = experiment: Antifungal activity against Aspergillus flavus ATCC 204304 […] after 72 hrs by ATB Fungus 2 method; settings: ATCC 204304, 72 h
Candida parapsilosis [24] = experiment: Antifungal activity against Candida parapsilosis ATCC 22019 […] after 72 hrs by Sensititre YeastOne method; settings: Lodderomyces parapsilosis, ATCC 22019, 72 h

| SMILES | MIC (Sporothrix schenckii [1]) [µg/mL] | MIC (Sporothrix schenckii [2]) [µg/mL] | MIC (Pichia kudriavzevii [3]) [µg/mL] | MIC (Sporothrix schenckii [4]) [µg/mL] | MIC (Sporothrix schenckii [5]) [µg/mL] | MIC (Sporothrix schenckii [6]) [µg/mL] | MIC (Sporothrix schenckii [7]) [µg/mL] | MIC (Sporothrix schenckii [8]) [µg/mL] | MIC (Sporothrix schenckii [9]) [µg/mL] | MIC (Candida parapsilosis [10]) [µg/mL] | MIC (Sporothrix schenckii [11]) [µg/mL] | MIC (Sporothrix schenckii [12]) [µg/mL] | MIC (Sporothrix schenckii [13]) [µg/mL] | MIC (Sporothrix schenckii [14]) [µg/mL] | MIC (Sporothrix schenckii [15]) [µg/mL] | MIC (Sporothrix schenckii [16]) [µg/mL] | MIC (Sporothrix schenckii [18]) [µg/mL] | MIC (Sporothrix schenckii [19]) [µg/mL] | MIC50 (Sporothrix schenckii [20]) [µg/mL] | MIC90 (Sporothrix schenckii [20]) [µg/mL] | also measured |
| --- | --- | --- | --- | --- | --- | --- | --- | --- | --- | --- | --- | --- | --- | --- | --- | --- | --- | --- | --- | --- | --- |
| OC(Cn1cncn1)(Cn1cncn1)c1ccc(F)cc1F [FLUCONAZOLE] | > 64 | > 128 | 32 (≈ 104 µM) | > 128 | > 256 | 128 (≈ 418 µM) | > 64 | > 64 | > 128 | 4 (≈ 13.1 µM) | > 128 | > 64 | > 64 | > 128 | > 256 | > 64 | > 256 | > 256 | > 256 | > 256 | MIC (Pichia kudriavzevii [17]): 128 µg/mL (≈ 418 µM) |
| C[C@@H]1[C@H](O)[C@@H](C)/C=C/C=C/C=C/C=C/C=C/C=C/C=C/[C@H](O[C@@H]2O[C@H](C)[C@@H](O)[C@H](N)[C@@H]2O)C[C@@H]2O[C@](O)(C[C@@H](O)C[C@@H](O)[C@H](O)CC[C@@H](O)C[C@@H](O)CC(=O)O[C@H]1C)C[C@H](O)[C@H]2C(=O)O [AMPHOTERICIN B] | 0.06 (≈ 0.0649 µM) | ≤ 0.5 | ≤ 0.5 | 1 (≈ 1.08 µM) | 0.25 (≈ 0.271 µM) | 0.5 (≈ 0.541 µM) | > 16 | 1 (≈ 1.08 µM) | ≤ 0.5 | ≤ 0.5 | 4 (≈ 4.33 µM) | 4 (≈ 4.33 µM) | > 16 | 1 (≈ 1.08 µM) | 0.25 (≈ 0.271 µM) | 2 (≈ 2.16 µM) | 0.125 (≈ 0.135 µM) | 0.06 (≈ 0.0649 µM) | 0.5 (≈ 0.541 µM) | 1 (≈ 1.08 µM) | MIC (Aspergillus flavus [21]): 0.5 µg/mL (≈ 0.541 µM); MIC (Aspergillus flavus [22]): 4 µg/mL (≈ 4.33 µM); MIC (Aspergillus flavus [23]): > 16 µg/mL |
| CCC(C)n1ncn(-c2ccc(N3CCN(c4ccc(OCC5COC(Cn6cncn6)(c6ccc(Cl)cc6Cl)O5)cc4)CC3)cc2)c1=O (centres undefined) [ITRACONAZOLE] | 0.5 (≈ 0.709 µM) | 2 (≈ 2.83 µM) | 0.5 (≈ 0.709 µM) | 1 (≈ 1.42 µM) | 0.25 (≈ 0.354 µM) | 0.13 (≈ 0.184 µM) | 0.5 (≈ 0.709 µM) | 0.5 (≈ 0.709 µM) | 2 (≈ 2.83 µM) | ≤ 0.125 | 1 (≈ 1.42 µM) | 0.25 (≈ 0.354 µM) | 0.5 (≈ 0.709 µM) | 1 (≈ 1.42 µM) | 0.13 (≈ 0.184 µM) | 0.5 (≈ 0.709 µM) | 0.13 (≈ 0.184 µM) | 0.25 (≈ 0.354 µM) | 0.25 (≈ 0.354 µM) | 0.25 (≈ 0.354 µM) | MIC (Aspergillus flavus [21]): 0.25 µg/mL (≈ 0.354 µM); MIC (Aspergillus flavus [22]): 0.5 µg/mL (≈ 0.709 µM); MIC (Candida parapsilosis [24]): 0.25 µg/mL (≈ 0.354 µM); MIC (Aspergillus flavus [23]): 0.25 µg/mL (≈ 0.354 µM); MIC (Pichia kudriavzevii [17]): 1 µg/mL (≈ 1.42 µM) |
